Test results as given in the supplement of paper PMC10307832.

Key:
Test in all cases: relative viability (nuclei count vs DMSO), 5 days (fraction); higher = more cells survive
Entinostat + Navitoclax = compound: Nc1ccccc1NC(=O)c1ccc(CNC(=O)OCc2cccnc2)cc1 [Entinostat] + CC1(C)CCC(c2ccc(Cl)cc2)=C(CN2CCN(c3ccc(C(=O)NS(=O)(=O)c4ccc(N[C@H](CCN5CCOCC5)CSc5ccccc5)c(S(=O)(=O)C(F)(F)F)c4)cc3)CC2)C1 [Navitoclax] (partner 0.5 µM)
Outline: (§1)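 A single step with final 0.05% Triton X-100, 1% formaldehyde and 1 ug/ml Hoechst fixed the cells and stained nuclei 5 days after treatment. Lung cancer cell lines in 1536-well plates had been treated by pin tool the day after seeding with one drug alone or a fixed anchor-drug dose plus five library-drug doses (not always all listed) in √10 steps, and nuclei were counted on 4× images. Relative viability is the ratio of nuclei in treated wells to nuclei in vehicle wells, taken as the median of duplicate plates.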

[1] = compound: C1COCCN1C2=NC(=NC3=C2OC4=C3C=CC=N4)C5=CC(=CC=C5)NC(=O)C6=CN=C(C=C6)N + CC(=O)c1c(C)c2cnc(Nc3ccc(N4CCNCC4)cn3)nc2n(C2CCCC2)c1=O [Palbociclib] (partner 0.5 µM)
Outline: as §1

Entinostat + AZD7762 = compound: Nc1ccccc1NC(=O)c1ccc(CNC(=O)OCc2cccnc2)cc1 [Entinostat] + NC(=O)Nc1cc(-c2cccc(F)c2)sc1C(=O)N[C@H]1CCCNC1 [AZD7762] (partner 0.2 µM)
Outline: as §1

SGI-1776 + Tozasertib = compound: CN1CCC(CNc2ccc3ncc(-c4cccc(OC(F)(F)F)c4)n3n2)CC1 [SGI-1776] + Cc1cc(Nc2cc(N3CCN(C)CC3)nc(Sc3ccc(NC(=O)C4CC4)cc3)n2)n[nH]1 [Tozasertib] (partner 0.1 µM)
Outline: as §1

Cell Line | relative viability (Entinostat + Navitoclax; first compound 0.02 µM) | relative viability (Entinostat + Navitoclax; first compound 0.06325 µM) | relative viability (Entinostat + Navitoclax; first compound 0.2 µM) | relative viability (Entinostat + Navitoclax; first compound 0.6325 µM) | relative viability (Entinostat + Navitoclax; first compound 2 µM) | relative viability ([1]; first compound 0.02 µM) | relative viability ([1]; first compound 0.06325 µM) | relative viability ([1]; first compound 0.2 µM) | relative viability ([1]; first compound 0.6325 µM) | relative viability ([1]; first compound 2 µM) | relative viability (Entinostat + AZD7762; first compound 0.02 µM) | relative viability (Entinostat + AZD7762; first compound 0.06325 µM) | relative viability (Entinostat + AZD7762; first compound 0.2 µM) | relative viability (Entinostat + AZD7762; first compound 0.6325 µM) | relative viability (Entinostat + AZD7762; first compound 2 µM) | relative viability (SGI-1776 + Tozasertib; first compound 0.08 µM) | relative viability (SGI-1776 + Tozasertib; first compound 0.8 µM) | relative viability (SGI-1776 + Tozasertib; first compound 2.53 µM) | relative viability (SGI-1776 + Tozasertib; first compound 8 µM)
HCC-15 | 0.753 | 0.699 | 0.58 | 0.302 | 0.196 | 0.742 | 0.775 | 0.67 | 0.682 | 0.574 | 1.19 | 1.2 | 1.26 | 0.774 | 0.457 | 0.386 | 0.312 | 0.118 | 0.112
HCC-44 | 1.02 | 0.826 | 0.418 | 0.403 | 0.235 | 0.952 | 0.987 | 0.96 | 1.01 | 1.01 | 1.02 | 0.876 | 1.02 | 0.995 | 0.774 | 0.904 | 0.491 | 0.336 | 0.246
HCC-78 | 0.739 | 0.652 | 0.498 | 0.218 | 0.181 | 0.48 | 0.484 | 0.476 | 0.427 | 0.378 | 0.609 | 0.687 | 0.466 | 0.327 | 0.254 | 0.466 | 0.318 | 0.41 | 0.308
HCC-366 | 1.06 | 0.946 | 0.905 | 0.529 | 0.138 | 0.397 | 0.435 | 0.367 | 0.419 | 0.22 | 0.262 | 0.29 | 0.272 | 0.107 | 0.121 | 0.115 | 0.0741 | 0.0957 | 0.0418
HCC-827 | 1.03 | 0.93 | 0.812 | 0.595 | 0.386 | 0.392 | 0.537 | 0.491 | 0.538 | 0.34 | 0.247 | 0.244 | 0.159 | 0.203 | 0.159 | 0.448 | 0.369 | 0.422 | 0.359
HOP-62 | 1.08 | 0.923 | 0.832 | 0.607 | 0.217 | 0.529 | 0.513 | 0.444 | 0.426 | 0.182 | 0.535 | 0.711 | 0.545 | 0.222 | 0.15 | 0.397 | 0.323 | 0.241 | 0.251
LC-2-ad | 0.387 | 0.289 | 0.264 | 0.17 | 0.134 | 0.518 | 0.484 | 0.469 | 0.526 | 0.396 | 0.884 | 0.853 | 0.759 | 0.497 | 0.257 | 0.451 | 0.309 | 0.336 | 0.261
LCLC-97TM1 | 0.341 | 0.358 | 0.473 | 0.308 | 0.272 | 0.226 | 0.26 | 0.236 | 0.323 | 0.162 | 0.246 | 0.283 | 0.283 | 0.281 | 0.243 | 0.211 | 0.188 | 0.163 | 0.185
LK-2 | 0.719 | 0.752 | 0.659 | 0.443 | 0.21 | 0.71 | 0.646 | 0.82 | 0.501 | 0.356 | 0.481 | 0.623 | 0.5 | 0.345 | 0.21 | 0.181 | 0.206 | 0.16 | 0.182
LOU-NH91 | 0.72 | 0.721 | 0.625 | 0.428 | 0.315 | 0.541 | 0.551 | 0.565 | 0.49 | 0.535 | 0.729 | 0.807 | 0.735 | 0.664 | 0.653 | 0.711 | 0.594 | 0.459 | 0.341
LU99A | 0.752 | 0.916 | 0.75 | 0.567 | 0.421 | 0.412 | 0.448 | 0.361 | 0.343 | 0.29 | 0.353 | 0.475 | 0.378 | 0.224 | 0.254 | 0.252 | 0.239 | 0.229 | 0.25
LXF-289 | 0.929 | 0.908 | 0.922 | 0.786 | 0.567 | 0.603 | 0.604 | 0.623 | 0.612 | 0.384 | 1.05 | 1.14 | 1.07 | 0.952 | 0.473 | 0.171 | 0.212 | 0.184 | 0.0856
NCI-H23 | 0.727 | 0.88 | 0.873 | 0.668 | 0.433 | 0.622 | 0.555 | 0.457 | 0.524 | 0.225 | 0.377 | 0.294 | 0.251 | 0.137 | 0.121 | 0.367 | 0.295 | 0.282 | 0.205
NCI-H322M | 1.3 | 1.17 | 1.27 | 1.27 | 0.845 | 0.485 | 0.536 | 0.54 | 0.48 | 0.384 | 0.591 | 0.64 | 0.958 | 0.731 | 0.621 | 0.551 | 0.483 | 0.461 | 0.394
NCI-H441 | 0.689 | 0.505 | 0.632 | 0.233 | 0.0467 | 0.208 | 0.178 | 0.198 | 0.175 | 0.198 | 1.05 | 0.883 | 0.715 | 0.281 | 0.196 | 0.604 | 0.437 | 0.216 | 0.297
NCI-H460 | 1.08 | 0.973 | 1.04 | 0.0885 | 0.0187 | 0.149 | 0.186 | 0.112 | 0.146 | 0.0961 | 0.65 | 0.651 | 0.559 | 0.233 | 0.0734 | 0.475 | 0.278 | 0.0744 | 0.0448
